Test results published in patent publication US20210238225A1, “PEPTIDOMIMETIC INHIBITORS OF THE PEPTIDYL-PROLYL CIS/TRANS ISOMERASE (PIN1)” (DANA-FARBER CANCER INSTITUTE, INC., priority 2018, published 2021).
Read-outs that look alike come from different tables or passages of the source. Non-standard residues stand in square brackets, D forms with d. Residues, ends and D or L forms follow the SMILES beside them. *: point of attachment. alloThr(PO3H2) = C[C@H](OP(=O)(O)O)[C@H](N)C(=O)O; Phe(4-tBu) = CC(C)(C)c1ccc(C[C@H](N)C(=O)O)cc1; Ala(4-thiazolyl) = N[C@@H](Cc1cscn1)C(=O)O; Phe(4-F) = N[C@@H](Cc1ccc(F)cc1)C(=O)O; 2Nal = N[C@@H](Cc1ccc2ccccc2c1)C(=O)O; Bta = N[C@@H](Cc1csc2ccccc12)C(=O)O; NH(4-Me-benzyl) = Cc1ccc(CN*)cc1; NMeF = CN[C@@H](Cc1ccccc1)C(=O)O; Cit = NC(=O)NCCC[C@H](N)C(=O)O; Pip = O=C(O)[C@@H]1CCCCN1; Piperidide = C1CCN(*)CC1; βNA = c1ccc2cc(N*)ccc2c1; Fluoroacetyl = O=C(CF)*; NHcBu = C1CC(N*)C1; X4 = CN(c1ccccc1)*; X6 = CC(Cl)C(=O)*; ClAc = O=C(CCl)*

Target: Pin1 (GST-Pin1) (Homo sapiens, UniProt Q13526)
Assay: Fluorescence polarization (FP) assay, binding to Pin1
Details: competition with fluorescein-labeled peptide probe, 12 hours pre-incubation at 4° C., Kenakin Ki equation

Chain of Pin1 (GST-Pin1) (Q13526 whole entry): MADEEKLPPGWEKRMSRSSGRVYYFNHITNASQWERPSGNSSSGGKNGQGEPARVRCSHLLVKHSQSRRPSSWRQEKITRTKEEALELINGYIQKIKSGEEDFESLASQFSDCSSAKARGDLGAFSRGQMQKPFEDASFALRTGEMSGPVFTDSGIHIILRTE

Ki (read-out: Ki, μM (FP Assay)) [µM]	Structure (SMILES)	Ki (Ki, μM (FP Assay)) [µM]
–	NC(=O)NCCC[C@H](NC(=O)[C@H](Cc1c[nH]c2ccccc12)NC(=O)[C@@H]1CCCCN1C(=O)[C@H](CCC(=O)O)NC(=O)CF)C(N)=O [Compound 6b, (S)-5-((S)-2-(((S)-1-(((S)-1-Amino-1-oxo-5-ureidopentan-2-yl)amino)-3-(1H-indol-3-yl)-1-oxopropan-2-yl)carbamoyl)piperidin-1-yl)-4-(2-fluoroacetamido)-5-oxopentanoic acid] (Fluoroacetyl-E[Pip]W[Cit]-NH2)	> 10
–	COC(=O)CC[C@H](NC(=O)CCl)C(=O)N1CCCC[C@H]1C(=O)N[C@@H](Cc1c[nH]c2ccccc12)C(=O)N[C@@H](Cc1ccc(F)cc1)C(=O)N(C)c1ccccc1 [Compound 11-20, Methyl (S)-4-(2-chloroacetamido)-5-((S)-2-(((S)-1-(((S)-3-(4-fluorophenyl)-1-(methyl-(phenyl)amino)-1-oxopropan-2-yl)amino)-3-(1H-indol-3-yl)-1-oxopropan-2-yl)carbamoyl)-piperidin-1-yl)-5-oxopentanoate] (ClAc-E(OMe)[Pip]W[Phe(4-F)]-X4)	0.223
0.13	NC(=O)C[C@H](NC(=O)[C@H](Cc1ccc2ccccc2c1)NC(=O)[C@@H]1CCCCN1C(=O)[C@H](CCC(=O)O)NC(=O)CCl)C(N)=O [Compound 2-8, (S)-4-(2-Chloroacetamido)-5-((S)-2-(((S)-1-(((S)-1,4-diamino-1,4-dioxobutan-2-yl)amino)-3-(naphthalen-2-yl)-1-oxopropan-2-yl)carbamoyl)piperidin-1-yl)-5-oxopentanoic acid] (ClAc-E[Pip][2Nal]N-NH2)	–
–	Cc1ccc(CNC(=O)[C@H](CCCNC(N)=O)NC(=O)[C@H](Cc2c[nH]c3ccccc23)NC(=O)[C@@H]2CCCCN2C(=O)[C@H](Cc2ccccc2)NC(=O)CF)cc1 [Compound 15, (S)—N—((S)-3-(1H-Indol-3-yl)-1-(((S)-1-((4-methylbenzyl)amino)-1-oxo-5-ureidopentan-2-yl)amino)-1-oxopropan-2-yl)-1-((2-fluoroacetyl)-L-phenylalanyl)piperidine-2-carboxamide] (Fluoroacetyl-F[Pip]W[Cit]-{NH(4-Me-benzyl)})	> 10
> 10	NC(=O)NCCC[C@H](NC(=O)[C@H](Cc1ccc2ccccc2c1)NC(=O)[C@@H]1CCCCN1C(=O)[C@H](CCC(=O)O)N1C(=O)C=CC1=O)C(N)=O [Compound 5, (S)-5-((S)-2-(((S)-1-(((S)-1-Amino-1-oxo-5-ureidopentan-2-yl)amino)-3-(naphthalen-2-yl)-1-oxopropan-2-yl)carbamoyl)piperidin-1-yl)-4-(2,5-dioxo-2,5-dihydro-1H-pyrrol-1-yl)-5-oxopentanoic acid]	–
0.231	COC(=O)CC[C@H](NC(=O)CCl)C(=O)N1CCCC[C@H]1C(=O)N[C@@H](Cc1c[nH]c2ccccc12)C(=O)N[C@@H](Cc1ccccc1)C(N)=O [Compound 2-23, Methyl (S)-5-((S)-2-(((S)-1-(((S)-1-Amino-1-oxo-3-phenylpropan-2-yl)amino)-3-(1H-indol-3-yl)-1-oxopropan-2-yl)carbamoyl)piperidin-1-yl)-4-(2-chloroacetamido)-5-oxopentanoate] (ClAc-E(OMe)[Pip]WF-NH2)	–
> 10	CC(=O)N[C@@H](CCC(=O)O)C(=O)N1CCCC[C@H]1C(=O)N[C@@H](Cc1c[nH]c2ccccc12)C(=O)N[C@@H](CCCNC(N)=O)C(N)=O [Compound 2-33, (S)-4-Acetamido-5-((S)-2-(((S)-1-(((S)-1-amino-1-oxo-5-ureidopentan-2-yl)amino)-3-(1H-indol-3-yl)-1-oxopropan-2-yl)carbamoyl)piperidin-1-yl)-5-oxopentanoic acid] (Ac-E[Pip]W[Cit]-NH2)	–
4.02	NC(=O)[C@H](Cc1c[nH]cn1)NC(=O)[C@H](Cc1ccc2ccccc2c1)NC(=O)[C@@H]1CCCCN1C(=O)[C@H](CCC(=O)O)NC(=O)CCl [Compound 2b-7, (S)-5-((S)-2-(((S)-1-(((S)-1-Amino-3-(1H-imidazol-4-yl)-1-oxopropan-2-yl)amino)-3-(naphthalen-2-yl)-1-oxopropan-2-yl)carbamoyl)piperidin-1-yl)-4-(2-chloroacetamido)-5-oxopentanoic acid] (ClAc-E[Pip][2Nal]H-NH2)	–
> 10	NC(=O)CC[C@H](NC(=O)[C@H](Cc1ccc2ccccc2c1)NC(=O)[C@@H]1CCCCN1C(=O)[C@H](CC(=O)O)NC(=O)CCl)C(N)=O [Compound 2-2, (S)-3-(2-Chloroacetamido)-4-((S)-2-(((S)-1-(((S)-1,5-diamino-1,5-dioxopentan-2-yl)amino)-3-(naphthalen-2-yl)-1-oxopropan-2-yl)carbamoyl)piperidin-1-yl)-4-oxobutanoic acid] (ClAc-D[Pip][2Nal]Q-NH2)	–
0.19	CC(C)(C)c1ccc(C[C@H](NC(=O)[C@@H]2CCCCN2C(=O)[C@H](CCC(=O)O)NC(=O)CCl)C(=O)N[C@@H](CCCNC(=N)N)C(N)=O)cc1 [Compound 2b-14, (S)-5-((S)-2-(((S)-1-(((S)-1-Amino-5-guanidino-1-oxopentan-2-yl)amino)-3-(4-(tert-butyl)phenyl)-1-oxopropan-2-yl)carbamoyl)piperidin-1-yl)-4-(2-chloroacetamido)-5-oxopentanoic acid] (ClAc-E[Pip][Phe(4-tBu)]R-NH2)	–
0.11	NC(=O)NCCC[C@H](NC(=O)[C@H](Cc1c[nH]c2ccccc12)NC(=O)[C@@H]1CCCCN1C(=O)[C@H](CCC(=O)O)NC(=O)CCl)C(=O)Nc1ccc2ccccc2c1 [Compound 11-10, (S)-5-((S)-2-(((S)-3-(1H-Indol-3-yl)-1-(((S)-1-(naphthalen-2-ylamino)-1-oxo-5-ureidopentan-2-yl)amino)-1-oxopropan-2-yl)carbamoyl)piperidin-1-yl)-4-(2-chloroacetamido)-5-oxopentanoic acid] (ClAc-E[Pip]W[Cit]-βNA)	–
0.109	CN(C(=O)CCl)[C@@H](Cc1ccccc1)C(=O)N1CCCC[C@H]1C(=O)N[C@@H](Cc1csc2ccccc12)C(=O)N[C@@H](CCCNC(N)=O)C(=O)N1CCCCC1 [Compound 11-42, (S)—N—((S)-3-(Benzo[6]thiophen-3-yl)-1-oxo-1-(((S)-1-oxo-1-(piperidin-1-yl)-5-ureidopentan-2-yl)amino)propan-2-yl)-1-(N-(2-chloroacetyl)-N-methyl-L-phenylalanyl)piperidine-2-carboxamide] (ClAc-[NMeF][Pip][Bta][Cit]-Piperidide)	–
> 10	NC(=O)CC[C@H](NC(=O)[C@H](Cc1ccc2ccccc2c1)NC(=O)[C@@H]1CCCCN1C(=O)[C@@H](CC(=O)O)NC(=O)CCl)C(N)=O [Compound 2-1, (R)-3-(2-Chloroacetamido)-4-((S)-2-(((S)-1-(((S)-1,5-diamino-1,5-dioxopentan-2-yl)amino)-3-(naphthalen-2-yl)-1-oxopropan-2-yl)carbamoyl)piperidin-1-yl)-4-oxobutanoic acid] (ClAc-[dD][Pip][2Nal]Q-NH2)	–
0.026	NC(=O)NCCC[C@H](NC(=O)[C@H](Cc1c[nH]c2ccccc12)NC(=O)[C@@H]1CCCCN1C(=O)[C@H](Cc1ccccc1)NC(=O)CCl)C(=O)NC1CCC1 [Compound 11-37, (S)-1-((2-Chloroacetyl)-L-phenylalanyl)-N—((S)-1-(((S)-1-(cyclobutylamino)-1-oxo-5-ureidopentan-2-yl)amino)-3-(1H-indol-3-yl)-1-oxopropan-2-yl)piperidine-2-carboxamide] (ClAc-F[Pip]W[Cit]-NHcBu)	–
1.24	C[C@H](OP(=O)(O)O)[C@H](NC(=O)CCl)C(=O)N1CCCC[C@H]1C(=O)N[C@@H](Cc1ccc2ccccc2c1)C(=O)N[C@@H](CCC(N)=O)C(N)=O [Compound 2-4, (2S,3S)-3-(2-Chloroacetamido)-4-((S)-2-(((S)-1-(((S)-1,5-diamino-1,5-dioxopentan-2-yl)amino)-3-(naphthalen-2-yl)-1-oxopropan-2-yl)carbamoyl)piperidin-1-yl)-4-oxobutan-2-yl dihydrogen phosphate] (ClAc-[alloThr(PO3H2)][Pip][2Nal]Q-NH2)	–
0.13	NC(=O)[C@H](Cc1c[nH]c2ccccc12)NC(=O)[C@H](Cc1ccc2ccccc2c1)NC(=O)[C@@H]1CCCCN1C(=O)[C@H](CCC(=O)O)NC(=O)CCl [Compound 2-13, (S)-5-((S)-2-(((S)-1-(((S)-1-Amino-3-(1H-indol-3-yl)-1-oxopropan-2-yl)amino)-3-(naphthalen-2-yl)-1-oxopropan-2-yl)carbamoyl)piperidin-1-yl)-4-(2-chloroacetamido)-5-oxopentanoic acid] (ClAc-E[Pip][2Nal]W-NH2)	–

Structure (SMILES)	Ki (read-out: Ki, μM (FP Assay)) [µM]	Ki (Ki, μM (FP Assay)) [µM]
Cc1ccc(CNC(=O)[C@H](Cc2cscn2)NC(=O)[C@H](Cc2c[nH]c3ccccc23)NC(=O)[C@@H]2CCCCN2C(=O)[C@H](Cc2ccccc2)NC(=O)CCl)cc1 [Compound 11-32, (S)—N—((S)-3-(1H-Indol-3-yl)-1-(((S)-1-((4-methylbenzyl)amino)-1-oxo-3-(thiazol-4-yl)propan-2-yl)amino)-1-oxopropan-2-yl)-1-((2-chloroacetyl)-L-phenylalanyl)piperidine-2-carboxamide] (ClAc-F[Pip]W[Ala(4-thiazolyl)]-{NH(4-Me-benzyl)})	0.121	–
CN(C(=O)CCl)[C@@H](Cc1ccccc1)C(=O)N1CCCC[C@H]1C(=O)N[C@@H](Cc1c[nH]c2ccccc12)C(=O)N[C@@H](Cc1ccc(F)cc1)C(=O)N1CCCCC1 [Compound 11-43, (S)-1-(N-(2-Chloroacetyl)-N-methyl-L-phenylalanyl)-N—((S)-1-(((S)-3-(4-fluorophenyl)-1-oxo-1-(piperidin-1-yl)propan-2-yl)amino)-3-(1H-indol-3-yl)-1-oxopropan-2-yl)piperidine-2-carboxamide] (ClAc-[NMeF][Pip]W[Phe(4-F)]-Piperidide)	0.172	–
Cc1ccc(CNC(=O)[C@H](CCCNC(N)=O)NC(=O)[C@H](Cc2c[nH]c3ccccc23)NC(=O)[C@@H]2CCCCN2C(=O)[C@H](Cc2ccccc2)NC(=O)C(C)Cl)cc1 (stereo partly drawn) [Compound 11-34, (2S)—N—((S)-3-(1H-indol-3-yl)-1-(((S)-1-((4-methylbenzyl)amino)-1-oxo-5-ureidopentan-2-yl)amino)-1-oxopropan-2-yl)-1-((2-chloropropanoyl)-L-phenylalanyl)piperidine-2-carboxamide] (X6-F[Pip]W[Cit]-{NH(4-Me-benzyl)})	> 10	–
